# Test results published in ChEMBL document CHEMBL1201862, “PubChem BioAssay data set” (2004).
#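 Tested at 5 concentrations; 48 h exposure; 96-well plates; endpoints linearly interpolated, else capped at highest concentration. The concentration for 50% growth inhibition is given as GI50.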 Active and inactive are the calls of the source. Rule as the data show it: active = GI50 up to about 1.1 µM and inactive = higher.
# Experiments:
# Test in all cases: NCI anticancer screen, dose series, 48 h
# [1] = system: OVCAR-4
# [2] = system: ACHN
# [3] = system: EKVX
# [4] = system: UO-31
# [5] = system: LXFL 529
# [6] = system: HL-60
# [7] = system: SK-MEL-2
# [8] = system: HCT-15
# [9] = system: M19-MEL
# [10] = system: DMS-273
# [11] = system: MDA-MB-435
# [12] = system: MDA-MB-231
# [13] = system: SK-MEL-28
# [14] = system: KM-20L2
# [15] = system: XF498
# [16] = system: K562
# [17] = system: CCRF-CEM
# [18] = system: MDA-N
# [19] = system: NCI-H460
# [20] = system: SNB-75
# [21] = system: NCI-H23
# [22] = system: TK-10
# [23] = system: DMS-114
# [24] = system: Malme-3M
# [25] = system: COLO 205
# [26] = system: SW-620
# [27] = system: SF-295
# [28] = system: MCF7
# [29] = system: 786-0
# [30] = system: A549
# [31] = system: LOX IMVI
# [32] = system: DLD-1
# [33] = system: SNB-78
# [34] = system: IGROV-1
# [35] = system: Hs-578T
# [36] = system: HCC 2998
# [37] = system: SNB-19
# [38] = system: SF-539
# [39] = system: HCT-116
# [40] = system: NCI-H522
# [41] = system: DU-145
# [42] = system: T47D
# [43] = system: SF-268
# [44] = system: HT-29
# [45] = system: A498
# [46] = system: HOP-92
# [47] = system: PC-3
# [48] = system: RPMI-8226
# [49] = system: SR
# [50] = system: HOP-18
# [51] = system: OVCAR-8
# [52] = system: HOP-62
# [53] = system: RXF 393
# [54] = system: UACC-62
# [55] = system: UACC-257
# [56] = system: SN12C
# [57] = system: CAKI-1
# [58] = system: RXF 631
# [59] = system: U-251
# [60] = system: BT-549
# [61] = system: KM12
# [62] = system: NCI-H226
# [63] = system: OVCAR-3
# [64] = system: SK-OV-3
# [65] = system: M14
# [66] = system: MOLT-4
# [67] = system: OVCAR-5
# [68] = system: SK-MEL-5
smiles,measurement,setting,value
COC1CC(CC2CCC(C)C(C(C)C(=O)O)O2)OC2(OC(C)(C3CCC(C)(C4OC(C5OC(O)(CO)C(C)CC5C)CC4C)O3)CC2C)C1C (stereo not drawn),GI50,[1],6560 nM (inactive)
same,GI50,[2],964 nM (active)
same,GI50,[3],2150 nM (inactive)
same,GI50,[4],1790 nM (inactive)
same,GI50,[5],53.5 nM (active)
same,GI50,[6],36.3 nM (active)
same,GI50,[7],646 nM (active)
same,GI50,[8],1850 nM
same,GI50,[9],239 nM (active)
same,GI50,[10],71.9 nM (active)
same,GI50,[11],1750 nM (inactive)
same,GI50,[12],1530 nM (inactive)
same,GI50,[13],1430 nM (inactive)
same,GI50,[14],124 nM (active)
same,GI50,[15],42.3 nM (active)
same,GI50,[16],50.2 nM (active)
same,GI50,[17],22.8 nM (active)
same,GI50,[18],757 nM (active)
same,GI50,[19],402 nM (active)
same,GI50,[20],360 nM (active)
same,GI50,[21],295 nM (active)
same,GI50,[22],5360 nM (inactive)
same,GI50,[23],< 15.1 nM (active)
same,GI50,[24],92.3 nM (active)
same,GI50,[25],116 nM (active)
same,GI50,[26],1520 nM (inactive)
same,GI50,[27],1150 nM (inactive)
same,GI50,[28],150 nM (active)
same,GI50,[29],1080 nM (active)
same,GI50,[30],111 nM (active)
same,GI50,[31],1280 nM (inactive)
same,GI50,[32],510 nM (active)
same,GI50,[33],1510 nM (inactive)
same,GI50,[34],1560 nM (inactive)
same,GI50,[35],910 nM (active)
same,GI50,[36],186 nM (active)
same,GI50,[37],359 nM (active)
same,GI50,[38],190 nM (active)
same,GI50,[39],759 nM (active)
same,GI50,[40],21.7 nM (active)
same,GI50,[41],3850 nM (inactive)
same,GI50,[42],284 nM (active)
same,GI50,[43],1880 nM (inactive)
same,GI50,[44],183 nM (active)
same,GI50,[45],220 nM (active)
same,GI50,[46],1070 nM (active)
same,GI50,[47],552 nM (active)
same,GI50,[48],167 nM (active)
same,GI50,[49],63.4 nM (active)
same,GI50,[50],284 nM (active)
same,GI50,[51],1380 nM (inactive)
same,GI50,[52],522 nM (active)
same,GI50,[53],< 10.9 nM (active)
same,GI50,[54],1610 nM (inactive)
same,GI50,[55],57.8 nM (active)
same,GI50,[56],257 nM (active)
same,GI50,[57],906 nM (active)
same,GI50,[58],73.8 nM (active)
same,GI50,[59],83.6 nM (active)
same,GI50,[60],300 nM (active)
same,GI50,[61],773 nM (active)
same,GI50,[62],1210 nM (inactive)
same,GI50,[63],40.6 nM (active)
same,GI50,[64],7400 nM (inactive)
same,GI50,[65],1800 nM (inactive)
same,GI50,[66],347 nM (active)
same,GI50,[67],8110 nM (inactive)
same,GI50,[68],156 nM (active)
